Measurements taken from the supplement of paper PMC10307832.

Assays:
Experiment in all cases: relative viability (nuclei count vs DMSO), 5 days (fraction); higher = more cells survive
Sorafenib = compound: CNC(=O)c1cc(Oc2ccc(NC(=O)Nc3ccc(Cl)c(C(F)(F)F)c3)cc2)ccn1 [Sorafenib]
Procedure, shortened: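 Viability here means nuclei in treated wells divided by nuclei in vehicle wells, reported as the median across plates. Only plates with control CV below 25% and at least one doubling passed. Lung cancer cell lines in 1536-well plates were exposed to five √10-spaced library-drug doses for 5 days and counted from 4× Hoechst images in MetaXpress.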

Sorafenib + Olaparib = compound: CNC(=O)c1cc(Oc2ccc(NC(=O)Nc3ccc(Cl)c(C(F)(F)F)c3)cc2)ccn1 [Sorafenib] + O=C(c1cc(Cc2n[nH]c(=O)c3ccccc23)ccc1F)N1CCN(C(=O)C2CC2)CC1 [Olaparib] (partner 8 µM)
Procedure, shortened: (§1)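 Lung cancer cell lines in 1536-well plates were dosed by pin tool the day after seeding, either with one drug alone or with a fixed anchor-drug dose plus five library-drug doses (not always all listed) in √10 steps. After 5 days, cells were fixed and their nuclei stained in one step (final 0.05% Triton X-100, 1% formaldehyde, 1 ug/ml Hoechst), then counted on 4× images. Relative viability is the nuclei count in treated wells divided by that in vehicle wells. Values are medians of duplicate plates.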

Sorafenib + Foretinib = compound: CNC(=O)c1cc(Oc2ccc(NC(=O)Nc3ccc(Cl)c(C(F)(F)F)c3)cc2)ccn1 [Sorafenib] + COc1cc2c(Oc3ccc(NC(=O)C4(C(=O)Nc5ccc(F)cc5)CC4)cc3F)ccnc2cc1OCCCN1CCOCC1 [Foretinib] (partner 0.25 µM)
Procedure, shortened: as §1

Sorafenib + Navitoclax = compound: CNC(=O)c1cc(Oc2ccc(NC(=O)Nc3ccc(Cl)c(C(F)(F)F)c3)cc2)ccn1 [Sorafenib] + CC1(C)CCC(c2ccc(Cl)cc2)=C(CN2CCN(c3ccc(C(=O)NS(=O)(=O)c4ccc(N[C@H](CCN5CCOCC5)CSc5ccccc5)c(S(=O)(=O)C(F)(F)F)c4)cc3)CC2)C1 [Navitoclax] (partner 0.5 µM)
Procedure, shortened: as §1

Sorafenib + Crizotinib = compound: CNC(=O)c1cc(Oc2ccc(NC(=O)Nc3ccc(Cl)c(C(F)(F)F)c3)cc2)ccn1 [Sorafenib] + C[C@@H](Oc1cc(-c2cnn(C3CCNCC3)c2)cnc1N)c1c(Cl)ccc(F)c1Cl [Crizotinib] (partner 1 µM)
Procedure, shortened: as §1

Sorafenib + Alpelisib = compound: CNC(=O)c1cc(Oc2ccc(NC(=O)Nc3ccc(Cl)c(C(F)(F)F)c3)cc2)ccn1 [Sorafenib] + Cc1nc(NC(=O)N2CCC[C@H]2C(N)=O)sc1-c1ccnc(C(C)(C)C(F)(F)F)c1 [Alpelisib] (partner 2 µM)
Procedure, shortened: as §1

Sorafenib + Linsitinib = compound: CNC(=O)c1cc(Oc2ccc(NC(=O)Nc3ccc(Cl)c(C(F)(F)F)c3)cc2)ccn1 [Sorafenib] + C[C@]1(O)C[C@@H](c2nc(-c3ccc4ccc(-c5ccccc5)nc4c3)c3c(N)nccn32)C1 [Linsitinib] (partner 1 µM)
Procedure, shortened: as §1

Sorafenib + Bortezomib = compound: CNC(=O)c1cc(Oc2ccc(NC(=O)Nc3ccc(Cl)c(C(F)(F)F)c3)cc2)ccn1 [Sorafenib] + CC(C)C[C@H](NC(=O)[C@H](Cc1ccccc1)NC(=O)c1cnccn1)B(O)O [Bortezomib] (partner 0.002 µM)
Procedure, shortened: as §1

Sorafenib + Lapatinib = compound: CNC(=O)c1cc(Oc2ccc(NC(=O)Nc3ccc(Cl)c(C(F)(F)F)c3)cc2)ccn1 [Sorafenib] + CS(=O)(=O)CCNCc1ccc(-c2ccc3ncnc(Nc4ccc(OCc5cccc(F)c5)c(Cl)c4)c3c2)o1 [Lapatinib] (partner 2 µM)
Procedure, shortened: as §1

Sorafenib + Pictilisib = compound: CNC(=O)c1cc(Oc2ccc(NC(=O)Nc3ccc(Cl)c(C(F)(F)F)c3)cc2)ccn1 [Sorafenib] + CS(=O)(=O)N1CCN(Cc2cc3nc(-c4cccc5[nH]ncc45)nc(N4CCOCC4)c3s2)CC1 [Pictilisib] (partner 1 µM)
Procedure, shortened: as §1

Sorafenib + Phenformin = compound: CNC(=O)c1cc(Oc2ccc(NC(=O)Nc3ccc(Cl)c(C(F)(F)F)c3)cc2)ccn1 [Sorafenib] + N=C(N)NC(=N)NCCc1ccccc1 [Phenformin] (partner 250 µM)
Procedure, shortened: as §1

Sorafenib + Trametinib = compound: CNC(=O)c1cc(Oc2ccc(NC(=O)Nc3ccc(Cl)c(C(F)(F)F)c3)cc2)ccn1 [Sorafenib] + CC(=O)Nc1cccc(-n2c(=O)n(C3CC3)c(=O)c3c(Nc4ccc(I)cc4F)n(C)c(=O)c(C)c32)c1 [Trametinib] (partner 0.02 µM)
Procedure, shortened: as §1

Sorafenib + Luminespib = compound: CNC(=O)c1cc(Oc2ccc(NC(=O)Nc3ccc(Cl)c(C(F)(F)F)c3)cc2)ccn1 [Sorafenib] + CCNC(=O)c1noc(-c2cc(C(C)C)c(O)cc2O)c1-c1ccc(CN2CCOCC2)cc1 [Luminespib] (partner 0.01 µM)
Procedure, shortened: as §1

Sorafenib + Vorinostat = compound: CNC(=O)c1cc(Oc2ccc(NC(=O)Nc3ccc(Cl)c(C(F)(F)F)c3)cc2)ccn1 [Sorafenib] + O=C(CCCCCCC(=O)Nc1ccccc1)NO [Vorinostat] (partner 1 µM)
Procedure, shortened: as §1

Sorafenib + Pemetrexed = compound: CNC(=O)c1cc(Oc2ccc(NC(=O)Nc3ccc(Cl)c(C(F)(F)F)c3)cc2)ccn1 [Sorafenib] + Nc1nc2[nH]cc(CCc3ccc(C(=O)N[C@@H](CCC(=O)O)C(=O)O)cc3)c2c(=O)[nH]1 [Pemetrexed] (partner 0.2 µM)
Procedure, shortened: as §1

Sorafenib + OSI-027 = compound: CNC(=O)c1cc(Oc2ccc(NC(=O)Nc3ccc(Cl)c(C(F)(F)F)c3)cc2)ccn1 [Sorafenib] + COc1cccc2cc(-c3nc([C@H]4CC[C@H](C(=O)O)CC4)n4ncnc(N)c34)[nH]c12 [OSI-027] (partner 0.5 µM)
Procedure, shortened: as §1

Sorafenib + Dasatinib = compound: CNC(=O)c1cc(Oc2ccc(NC(=O)Nc3ccc(Cl)c(C(F)(F)F)c3)cc2)ccn1 [Sorafenib] + Cc1nc(Nc2ncc(C(=O)Nc3c(C)cccc3Cl)s2)cc(N2CCN(CCO)CC2)n1 [Dasatinib] (partner 0.075 µM)
Procedure, shortened: as §1

Sorafenib + Tozasertib = compound: CNC(=O)c1cc(Oc2ccc(NC(=O)Nc3ccc(Cl)c(C(F)(F)F)c3)cc2)ccn1 [Sorafenib] + Cc1cc(Nc2cc(N3CCN(C)CC3)nc(Sc3ccc(NC(=O)C4CC4)cc3)n2)n[nH]1 [Tozasertib] (partner 0.1 µM)
Procedure, shortened: as §1

Sorafenib + Palbociclib = compound: CNC(=O)c1cc(Oc2ccc(NC(=O)Nc3ccc(Cl)c(C(F)(F)F)c3)cc2)ccn1 [Sorafenib] + CC(=O)c1c(C)c2cnc(Nc3ccc(N4CCNCC4)cn3)nc2n(C2CCCC2)c1=O [Palbociclib] (partner 0.5 µM)
Procedure, shortened: as §1

Sorafenib + Decitabine = compound: CNC(=O)c1cc(Oc2ccc(NC(=O)Nc3ccc(Cl)c(C(F)(F)F)c3)cc2)ccn1 [Sorafenib] + Nc1ncn([C@H]2C[C@H](O)[C@@H](CO)O2)c(=O)n1 [Decitabine] (partner 2 µM)
Procedure, shortened: as §1

Sorafenib + AZD7762 = compound: CNC(=O)c1cc(Oc2ccc(NC(=O)Nc3ccc(Cl)c(C(F)(F)F)c3)cc2)ccn1 [Sorafenib] + NC(=O)Nc1cc(-c2cccc(F)c2)sc1C(=O)N[C@H]1CCCNC1 [AZD7762] (partner 0.2 µM)
Procedure, shortened: as §1

In the case of EBC-1, the relative viability (Sorafenib; 0.08 µM) was 1.05, the relative viability (Sorafenib; 0.253 µM) was 0.904 and the relative viability (Sorafenib; 2.53 µM) was 0.929. The relative viability (Sorafenib; 8 µM) was 0.812, the relative viability (Sorafenib + Olaparib; first compound 0.08 µM) was 0.717 and the relative viability (Sorafenib + Olaparib; first compound 0.253 µM) was 0.543. For the same cell line, the relative viability (Sorafenib + Olaparib; first compound 2.53 µM) was 0.594, the relative viability (Sorafenib + Olaparib; first compound 8 µM) was 0.557 and the relative viability (Sorafenib + Foretinib; first compound 0.08 µM) was 0.092. For the same cell line, the relative viability (Sorafenib + Foretinib; first compound 0.253 µM) was 0.1, the relative viability (Sorafenib + Foretinib; first compound 2.53 µM) was 0.11 and the relative viability (Sorafenib + Foretinib; first compound 8 µM) was 0.114. The relative viability (Sorafenib + Navitoclax; first compound 0.08 µM) was 0.568, the relative viability (Sorafenib + Navitoclax; first compound 2.53 µM) was 0.42 and the relative viability (Sorafenib + Navitoclax; first compound 8 µM) was 0.451. It also gave a relative viability (Sorafenib + Crizotinib; first compound 0.08 µM) of 0.189, a relative viability (Sorafenib + Crizotinib; first compound 0.253 µM) of 0.176 and a relative viability (Sorafenib + Crizotinib; first compound 2.53 µM) of 0.202. It also gave a relative viability (Sorafenib + Crizotinib; first compound 8 µM) of 0.203, a relative viability (Sorafenib + Alpelisib; first compound 0.08 µM) of 0.875 and a relative viability (Sorafenib + Alpelisib; first compound 0.253 µM) of 0.769. The relative viability (Sorafenib + Alpelisib; first compound 2.53 µM) was 0.89, the relative viability (Sorafenib + Alpelisib; first compound 8 µM) was 0.623 and the relative viability (Sorafenib + Linsitinib; first compound 0.253 µM) was 0.732. It also gave a relative viability (Sorafenib + Linsitinib; first compound 2.53 µM) of 0.931, a relative viability (Sorafenib + Linsitinib; first compound 8 µM) of 0.625 and a relative viability (Sorafenib + Bortezomib; first compound 0.08 µM) of 0.575. For the same cell line, the relative viability (Sorafenib + Bortezomib; first compound 0.253 µM) was 0.481, the relative viability (Sorafenib + Bortezomib; first compound 2.53 µM) was 0.521 and the relative viability (Sorafenib + Bortezomib; first compound 8 µM) was 0.405. It also gave a relative viability (Sorafenib + Lapatinib; first compound 0.08 µM) of 0.203, a relative viability (Sorafenib + Lapatinib; first compound 0.253 µM) of 0.219 and a relative viability (Sorafenib + Lapatinib; first compound 2.53 µM) of 0.226. For the same cell line, the relative viability (Sorafenib + Lapatinib; first compound 8 µM) was 0.208, the relative viability (Sorafenib + Pictilisib; first compound 0.08 µM) was 0.371 and the relative viability (Sorafenib + Pictilisib; first compound 0.253 µM) was 0.419. It also gave a relative viability (Sorafenib + Pictilisib; first compound 2.53 µM) of 0.355 and a relative viability (Sorafenib + Pictilisib; first compound 8 µM) of 0.287.
In the case of NCI-H522, the relative viability (Sorafenib; 0.08 µM) was 1.04, the relative viability (Sorafenib; 0.253 µM) was 0.877 and the relative viability (Sorafenib; 2.53 µM) was 0.865. For the same cell line, the relative viability (Sorafenib; 8 µM) was 0.648, the relative viability (Sorafenib + Olaparib; first compound 0.08 µM) was 0.68 and the relative viability (Sorafenib + Olaparib; first compound 0.253 µM) was 0.634. For the same cell line, the relative viability (Sorafenib + Olaparib; first compound 2.53 µM) was 0.775, the relative viability (Sorafenib + Olaparib; first compound 8 µM) was 0.541 and the relative viability (Sorafenib + Phenformin; first compound 0.08 µM) was 0.512. For the same cell line, the relative viability (Sorafenib + Phenformin; first compound 0.253 µM) was 0.526, the relative viability (Sorafenib + Phenformin; first compound 2.53 µM) was 0.695 and the relative viability (Sorafenib + Phenformin; first compound 8 µM) was 0.478. It also gave a relative viability (Sorafenib + Trametinib; first compound 0.08 µM) of 0.789, a relative viability (Sorafenib + Trametinib; first compound 0.253 µM) of 0.664 and a relative viability (Sorafenib + Trametinib; first compound 2.53 µM) of 0.748. It also gave a relative viability (Sorafenib + Trametinib; first compound 8 µM) of 0.58, a relative viability (Sorafenib + Luminespib; first compound 0.08 µM) of 1.28 and a relative viability (Sorafenib + Luminespib; first compound 0.253 µM) of 1.19. For the same cell line, the relative viability (Sorafenib + Luminespib; first compound 2.53 µM) was 0.929, the relative viability (Sorafenib + Luminespib; first compound 8 µM) was 0.992 and the relative viability (Sorafenib + Vorinostat; first compound 0.08 µM) was 1.02. It also gave a relative viability (Sorafenib + Vorinostat; first compound 0.253 µM) of 0.81, a relative viability (Sorafenib + Vorinostat; first compound 2.53 µM) of 0.89 and a relative viability (Sorafenib + Vorinostat; first compound 8 µM) of 0.741. The relative viability (Sorafenib + Pemetrexed; first compound 0.08 µM) was 1.02, the relative viability (Sorafenib + Pemetrexed; first compound 0.253 µM) was 0.782 and the relative viability (Sorafenib + Pemetrexed; first compound 2.53 µM) was 0.863. The relative viability (Sorafenib + Pemetrexed; first compound 8 µM) was 0.883, the relative viability (Sorafenib + OSI-027; first compound 0.08 µM) was 0.649 and the relative viability (Sorafenib + OSI-027; first compound 0.253 µM) was 0.631. For the same cell line, the relative viability (Sorafenib + OSI-027; first compound 2.53 µM) was 0.672, the relative viability (Sorafenib + OSI-027; first compound 8 µM) was 0.552 and the relative viability (Sorafenib + Dasatinib; first compound 0.08 µM) was 0.904. For the same cell line, the relative viability (Sorafenib + Dasatinib; first compound 2.53 µM) was 0.859, the relative viability (Sorafenib + Dasatinib; first compound 8 µM) was 0.772 and the relative viability (Sorafenib + Tozasertib; first compound 0.08 µM) was 0.626. For the same cell line, the relative viability (Sorafenib + Tozasertib; first compound 0.253 µM) was 0.596, the relative viability (Sorafenib + Tozasertib; first compound 2.53 µM) was 0.588 and the relative viability (Sorafenib + Tozasertib; first compound 8 µM) was 0.523. For the same cell line, the relative viability (Sorafenib + Palbociclib; first compound 0.08 µM) was 0.988, the relative viability (Sorafenib + Palbociclib; first compound 0.253 µM) was 0.92 and the relative viability (Sorafenib + Palbociclib; first compound 2.53 µM) was 1.2. The relative viability (Sorafenib + Palbociclib; first compound 8 µM) was 0.591, the relative viability (Sorafenib + Decitabine; first compound 0.08 µM) was 0.645 and the relative viability (Sorafenib + Decitabine; first compound 0.253 µM) was 0.686. The relative viability (Sorafenib + Decitabine; first compound 2.53 µM) was 0.657, the relative viability (Sorafenib + Decitabine; first compound 8 µM) was 0.648 and the relative viability (Sorafenib + AZD7762; first compound 0.08 µM) was 1.1. For the same cell line, the relative viability (Sorafenib + AZD7762; first compound 0.253 µM) was 0.556, the relative viability (Sorafenib + AZD7762; first compound 2.53 µM) was 0.874 and the relative viability (Sorafenib + AZD7762; first compound 8 µM) was 0.723.
